{
  "source": "patent US20230295235A1",
  "about": "“COMPOUNDS TARGETING ALPHA4-BETA7 INTEGRIN” (ZEALAND PHARMA A/S, priority 2020, published 2023)",
  "target": "T1, α4β7 integrin (MAdCAM-1 binding, α4β7-positive Th memory cells) (Homo sapiens, UniProt P13612+P26010)",
  "T1 construct": "endogenous in cells; host or cells: human whole blood",
  "T1 sequence (P13612 34-1032)": "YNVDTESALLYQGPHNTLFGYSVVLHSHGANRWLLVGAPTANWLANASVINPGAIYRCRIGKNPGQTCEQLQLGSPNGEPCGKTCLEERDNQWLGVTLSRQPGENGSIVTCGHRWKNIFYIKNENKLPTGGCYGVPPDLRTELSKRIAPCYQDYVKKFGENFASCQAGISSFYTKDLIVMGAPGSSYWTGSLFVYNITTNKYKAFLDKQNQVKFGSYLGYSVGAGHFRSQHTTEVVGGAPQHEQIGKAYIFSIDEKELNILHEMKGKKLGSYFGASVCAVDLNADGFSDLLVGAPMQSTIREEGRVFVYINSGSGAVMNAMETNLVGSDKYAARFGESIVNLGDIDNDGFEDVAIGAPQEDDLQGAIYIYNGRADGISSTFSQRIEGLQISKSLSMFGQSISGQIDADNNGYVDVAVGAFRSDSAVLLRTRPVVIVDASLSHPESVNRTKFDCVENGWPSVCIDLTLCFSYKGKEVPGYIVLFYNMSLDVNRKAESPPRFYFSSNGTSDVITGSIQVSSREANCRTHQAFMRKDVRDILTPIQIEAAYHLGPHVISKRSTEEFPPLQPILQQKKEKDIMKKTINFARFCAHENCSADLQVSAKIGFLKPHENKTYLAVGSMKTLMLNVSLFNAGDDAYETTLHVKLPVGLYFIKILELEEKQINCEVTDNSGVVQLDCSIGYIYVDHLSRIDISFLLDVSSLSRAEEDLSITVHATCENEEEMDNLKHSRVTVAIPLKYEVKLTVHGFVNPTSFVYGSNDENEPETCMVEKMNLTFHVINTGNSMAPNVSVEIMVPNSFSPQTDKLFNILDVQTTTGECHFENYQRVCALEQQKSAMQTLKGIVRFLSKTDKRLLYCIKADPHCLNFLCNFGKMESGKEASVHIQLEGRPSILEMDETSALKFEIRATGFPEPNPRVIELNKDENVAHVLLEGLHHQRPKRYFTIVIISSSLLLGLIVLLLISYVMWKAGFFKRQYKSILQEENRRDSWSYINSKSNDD",
  "T1 sequence (P26010 20-798)": "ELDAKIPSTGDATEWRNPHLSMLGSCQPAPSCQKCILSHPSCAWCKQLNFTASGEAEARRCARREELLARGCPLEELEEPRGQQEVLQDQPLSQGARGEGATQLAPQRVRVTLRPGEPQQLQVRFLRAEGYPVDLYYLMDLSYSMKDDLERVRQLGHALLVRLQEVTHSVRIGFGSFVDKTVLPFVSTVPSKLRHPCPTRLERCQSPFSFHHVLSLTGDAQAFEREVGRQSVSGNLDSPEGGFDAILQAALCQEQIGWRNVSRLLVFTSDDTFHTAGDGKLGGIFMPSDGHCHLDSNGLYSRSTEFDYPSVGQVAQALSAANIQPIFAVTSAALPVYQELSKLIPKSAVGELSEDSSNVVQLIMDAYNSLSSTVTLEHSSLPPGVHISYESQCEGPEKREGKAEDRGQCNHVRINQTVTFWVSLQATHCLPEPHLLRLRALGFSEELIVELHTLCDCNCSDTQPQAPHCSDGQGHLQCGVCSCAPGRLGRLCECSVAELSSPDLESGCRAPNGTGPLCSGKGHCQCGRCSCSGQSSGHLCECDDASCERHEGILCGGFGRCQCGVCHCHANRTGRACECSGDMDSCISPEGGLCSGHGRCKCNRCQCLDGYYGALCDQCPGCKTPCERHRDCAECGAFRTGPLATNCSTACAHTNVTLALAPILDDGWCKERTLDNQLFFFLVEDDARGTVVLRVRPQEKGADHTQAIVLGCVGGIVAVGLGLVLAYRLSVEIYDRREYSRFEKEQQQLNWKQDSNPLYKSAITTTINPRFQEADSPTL",
  "assay": "Competition assay: inhibition of biotinylated rhMAdCAM-1-Fc binding to α4β7-positive Th memory cells in whole blood (FACS receptor occupancy)",
  "format": "cell-based",
  "conditions": "single donor, 4 mM MnCl2, α4β7-positive Th memory cells, read-out: IC50, inhibition of MAdCAM-1 binding to primary cells",
  "method": "The compound of Example 1 was used in competition assay on CD4+ integrin α4+β7-|o memory T cells.\nReceptor occupancy in primary cells was determined by measuring the amount of biotinylated human recombinant MAdCAM-1-Fc or human recombinant VCAM-1-Fc bound to selected cell populations using flow cytometry. Human recombinant MAdCAM-1-Fc or human recombinant VCAM-1-Fc (R&D systems) were biotinylated using commercially available reagents and protocol (Pierce).\nWhole blood was collected from human donors in sodium heparin tubes. A volume of 100 µL of blood was incubated with the compound of Example 1 and 4 mM MnCl2 for 1 hour at room temperature. Cells were washed twice with 1 mL of 1X Dulbecco’s phosphate buffered saline (DPBS) calcium magnesium free (CMF) (ThermoFisher Scientific) and resuspended in 100 µL of DPBS CMF. […]\nFluorescence-activated cell sorting (FACS) data was acquired by electronic gating on the basis of forward versus side scatter. […] Cell population were determined using the following markers: CD45+, CD3+, CD4+,CD45RO+, CD49d+, integrin β7, biotinylated ligands.\nCompound receptor occupancy was defined as the decrease in the number of integrin β7+ or integrin β7-lo cells binding biotinylated rhMAdCAM-1 or rhVCAM-1, respectively. Receptor occupancy was calculated with the following equation: […]",
  "note": "pIC50: −log10 of the molar value.",
  "data": [
    {"smiles": "CC(C)C[C@@H]1NC(=O)c2ccc(-c3ccc(N4CCN(C(=O)c5ccccc5-c5ccccc5C(=O)N5CCN(c6ccc(-c7ccc8cc7CNC(=O)[C@@H]7CCCN7[C@H](C(=O)NC(C)(C)C)[C@H](C)NC(=O)[C@H]([C@@H](C)O)NC(=O)[C@H](CC(=O)O)NC(=O)[C@H](CC(C)C)NC8=O)cc6)CC5)CC4)cc3)c(c2)CNC(=O)[C@@H]2CCCN2[C@H](C(=O)NC(C)(C)C)[C@H](C)NC(=O)[C@H]([C@@H](C)O)NC(=O)[C@H](CC(=O)O)NC1=O", "note": "[Example 1, 2,2′-((S,S,S,S,S,S,1^2,8S,11S,14S,17S,18S)-((([1,1′-Biphenyl]-2,2′-Dicarbonyl)-Bis(Piperazine-4,1-Diyl))Bis(4,1-Phenylene))Bis(18-(Tert-Butylcarbamoyl)-14-((R)-1-Hydroxyethyl)-8-Isobutyl-17-Methyl-2,6,9,12,15-Pentaoxo-3,7,10,13,16-Pentaaza-1(2,1)-Pyrrolidina-5(1,3)-Benzenacyclooctadecaphane-5^6,11-Diyl))-Diacetic Acid]", "values": [
      {"measurement": "pIC50", "result": "~7.06"}
    ]}
  ]
}
